One experiment concerns NCI-H358 cells. Nature of the experiment: Cell proliferation inhibitory activity, NCI-H358 (CellTiter-Glo). The format is cell-based. Conditions: for IC50: Homo sapiens. As to the method: (§1) NCI-H358 cells in an exponential growth phase were digested with trypsin-EDTA and plated in a 96-well plate at 2000-3000 cells per well and incubated overnight at 37° C. with 5% CO2. A test compound was prepared as a mother liquor with DMSO, diluted with a RPMI 1640 growth medium in a concentration gradient and added to the 96-well plate and incubated for 72 hours at 37° C. in a 5% CO2 incubator. After incubation, an equal volume of CellTiter-Glo detection reagent was added to each well and incubated after shaking, and a chemiluminescence value was measured by a microplate reader, and the IC50 value for the inhibition of NCI-H358 cell proliferation was fitted and calculated by GraphPad Prism software.
The inhibitory effect of the compounds on the proliferation activity of H358 cells was tested with reference to the method of the biological test 2, and the results were as follows:
The inhibitory effect of the compounds on the proliferation activity of NCI-H358 cells was tested with reference to the method of the biological test 2, and the results were as follows.
On the technique in general: In ATP-based viability assays light output follows the ATP content of the culture.

Experiment [1] deals with NCI-H358 tumor cells xenograft. Nature of the experiment: Pharmacodynamics test of xenograft tumor model of NCI-H358 in nude mice. Particulars: NCI-H358 xenograft, 100 mg/kg, QD×15 days, oral gavage. Format: in vivo, Balb/c Nude mice. The protocol:
Animal species and number: Balb/c Nude; 6 animals per group.
Samples for testing: compound 3-2M, compound 3-16M, TM-1, TM-3, and AMG510 (obtained by purchasing).
Test groups: blank solvent control group; compound 3-2M (100 mg/kg, QD×15 days), compound 3-16M (100 mg/kg, QD×15 days), TM-1 (100 mg/kg, QD×15 days), TM-3 (100 mg/kg, QD×15 days); and AMG510 (100 mg/kg, QD×15 days).
Animal model establishment: NCI-H358 tumor cells at logarithmic phase were cultured and collected in vitro, and inoculated subcutaneously on the right side of the back of nude mice at a quantity of 5×10^6 cells/each, and the tumor-bearing nude mice were randomly grouped when the tumor volume grew to 150-300 mm^3. Subsequently, each group of animals was administered and the day of the first administration was defined as day 1 of the test.
Administration route and frequency: oral gavage; and once a day.
General state observation: observation time and frequency: once a day; observation index or content: including, but is not limited to local administration, appearance and signs, general behavioral activities, mental status, death and other abnormal manifestations of the animals. The animals were euthanized at the end of the test.
Tumor volume calculation: V=½×long diameter× short diameter^2 (mm^3). Tumor growth inhibition ratio TGI (%) was used to evaluate the tumor suppressive efficacy of the compounds. TGI (%)=[1-(mean tumor volume at the end of administration of the treatment group−mean tumor volume at the beginning of administration of the treatment group)/(mean tumor volume at the end of administration of the control group−mean tumor volume at the beginning of administration of the control group)]×100%.

The test system of another experiment is MIA PaCa-2 cells. The experiment in a line: Cell proliferation inhibitory activity, MIA PaCa-2 (CellTiter-Glo). The format is cell-based. Particulars: for IC50: Homo sapiens, MIA PaCa-2 cells, 72 hours. The protocol: as §1, with “MIA PaCa-2” for “NCI-H358”, “DMEM” for “RPMI 1640”
[2] abbreviates: NCI-H358, biological test 3, H358 cells, read-out: Cell proliferation inhibitory activity IC50 value of H358.
[3] abbreviates: NCI-H358, biological test 7, NCI-H358 cells, read-out: Cell proliferation inhibitory activity IC50 value of NCI-H358.
The mark [4] stands for this setting: NCI-H358, 72 h, biological test 2, NCI-H358 cells, 72 hours, read-out: Cell proliferation inhibitory activity IC50 value of H358.

Molecules are shown by their SMILES. Read-outs that look alike come from different tables or passages of the source.

In the case of `[2H]C(=O)c1cccc(F)c1-c1nc2c(cc1Cl)c(N1CCN(C(=[18O])C=C)C[C@@H]1C)nc(=O)n2-c1c(C)ccnc1C(C)C` [Compound 3-7MIS], in the experiment with NCI-H358 cells, the “cell proliferation inhibitory activity against KRAS G12C mutant cells NCI-H358 (in words)” value is given as “significant cell proliferation inhibitory activities”. Further, the IC50 in the experiment on NCI-H358 cells (setting [2]) was < 50 nM.

As for `[2H]C(=O)c1ccccc1-c1nc2c(cc1Cl)c(N1[C@@H](C)CN(C(=[18O])C=C)C[C@@H]1C)nc(=O)n2-c1c(C)ccnc1C(C)C` [Compound 3-8MIS], the “cell proliferation inhibitory activity against KRAS G12C mutant cells NCI-H358 (in words)” value in the experiment with NCI-H358 cells is recorded as “significant cell proliferation inhibitory activities”. In addition, in the experiment with NCI-H358 cells (setting [2]), the IC50 was < 50 nM.

As for `C=CC(=O)N1C[C@H](C)N(c2nc(=O)n(-c3c(C)ccnc3C(C)C)c3nc(-c4ccccc4C(N)=O)c(Cl)cc23)C[C@H]1C` [TM-2, reference compound], the IC50 in the experiment on NCI-H358 cells (setting [3]) was > 150 nM.

On to `C=CC(=O)N1C[C@H](C)N(c2nc(=O)n(-c3c(C)ccnc3C(C)C)c3nc(-c4ccccc4C(=O)O)c(Cl)cc23)C[C@H]1C` [TM-3, reference compound], for which the IC50 with NCI-H358 cells (setting [3]) is > 150 nM. The “Tumor suppression ratio (%)” value in experiment [1] was “+ (“+” represents that the tumor suppression ratio is less than 60%)”.

In the case of `[2H]C(=O)c1ccccc1-c1nc2c(cc1Cl)c(N1[C@@H](C)CN(C(=O)C=C)C[C@@H]1C)nc(=O)n2-c1c(C)ccnc1C(C)C` [Compound 3-14], the “cell proliferation inhibitory activity against KRAS G12C mutant cells NCI-H358 (in words)” value in the experiment on NCI-H358 cells is listed as “significant cell proliferation inhibitory activities”. For the same compound, the IC50 with NCI-H358 cells (setting [4]) is ≤ 50 nM.

As to `C=CC(=O)N1CCN(c2nc(=O)n(-c3c(C(C)C)ncnc3C(C)C)c3nc(-c4ccccc4C=O)c(Cl)cc23)[C@@H](C)C1` [Compound 3-31], in the experiment with NCI-H358 cells, the “cell proliferation inhibitory activity against KRAS G12C mutant cells NCI-H358 (in words)” value is reported as “significant cell proliferation inhibitory activities”. For the same compound, the IC50 in the experiment with NCI-H358 cells (setting [3]) is < 50 nM.

`C=CC(=[18O])N1C[C@H](C)N(c2nc(=O)n(-c3c(C)ccnc3C(C)C)c3nc(-c4ccccc4C=O)c(Cl)cc23)[C@@H](C)C1` [Compound 3-4MIS]: the “cell proliferation inhibitory activity against KRAS G12C mutant cells NCI-H358 (in words)” value with NCI-H358 cells is “significant cell proliferation inhibitory activities”. Besides, the IC50 in the experiment on NCI-H358 cells (setting [2]) was < 50 nM.

As for `[2H]C(=O)c1ccccc1-c1nc2c(cc1Cl)c(N1CCN(C(=O)C=C)C[C@]1([2H])C)nc(=O)n2-c1c(C)ccnc1C(C)C` [Compound 3-28M], in the experiment with NCI-H358 cells, the “cell proliferation inhibitory activity against KRAS G12C mutant cells NCI-H358 (in words)” value was “significant cell proliferation inhibitory activities”. In addition, the IC50 in the experiment with NCI-H358 cells (setting [4]) is ≤ 50 nM.

In the case of `[2H]C(=O)c1ccccc1-c1nc2c(cc1Cl)c(N1CCN(C(=O)C=C)C[C@@H]1C)nc(=O)n2-c1c(CC)ccnc1C(C)C` [Compound 3-6B], the “cell proliferation inhibitory activity against KRAS G12C mutant cells NCI-H358 (in words)” value in the experiment with NCI-H358 cells was “significant cell proliferation inhibitory activities”. The values for the IC50 in the experiment with NCI-H358 cells (setting [4]) and in the experiment with NCI-H358 cells (setting [3]) were ≤ 50 nM and < 50 nM, respectively.

Turning to `C=CC(=O)N1CCN(c2nc(=O)n(-c3c(C)ccnc3C(C)C)c3nc(-c4c(F)cccc4C=O)c(Cl)cc23)[C@@H](C)C1` [Compound 3-6P], in the experiment on NCI-H358 cells (setting [4]), the IC50 was > 50 nM.

Regarding `C=CC(=[18O])N1CCN(c2nc(=O)n(-c3c(C)ccnc3C(C)C)c3nc(-c4c(F)cccc4C=O)c(Cl)cc23)[C@@H](C)C1` [Compound 3-3MIS], in the experiment with NCI-H358 cells, the “cell proliferation inhibitory activity against KRAS G12C mutant cells NCI-H358 (in words)” value was “significant cell proliferation inhibitory activities”. In addition, in the experiment with NCI-H358 cells (setting [2]), the IC50 is < 50 nM.

For the compound `C=CC(=O)N1CCN(c2nc(=O)n(-c3c(C)ccnc3C(C)C)c3nc(-c4ccccc4C=O)c(Cl)cc23)[C@@H](C)C1` [Compound 3-2], the “cell proliferation inhibitory activity against KRAS G12C mutant cells NCI-H358 (in words)” value with NCI-H358 cells is recorded as “significant cell proliferation inhibitory activities”. In addition, the IC50 in the experiment on NCI-H358 cells (setting [4]) was ≤ 50 nM. Besides, in the experiment on MIA PaCa-2 cells, the “cell proliferation inhibitory activity against KRAS G12C mutant cells MIA PaCa-2 (in words)” value is “significant cell proliferation inhibitory activities” and the IC50 is < 50 nM.

Consider `C=CC(=O)N1C[C@H](C)N(c2nc(=O)n(-c3c(C)ccnc3C(C)C)c3nc(-c4c(F)cccc4C=O)c(Cl)cc23)C[C@H]1C` [Compound 3-19M], for which, in the experiment on MIA PaCa-2 cells, the “cell proliferation inhibitory activity against KRAS G12C mutant cells MIA PaCa-2 (in words)” value was “significant cell proliferation inhibitory activities” and the IC50 was < 50 nM.

`C=CC(=O)N1CCN(c2nc(=O)n(-c3c(C)ccnc3C(C)C)c3nc(-c4c(F)cccc4C=O)c(Cl)cc23)[C@@H](C)C1` [Compound 3-6]: in the experiment on NCI-H358 cells, the “cell proliferation inhibitory activity against KRAS G12C mutant cells NCI-H358 (in words)” value was “significant cell proliferation inhibitory activities”. In the experiment with MIA PaCa-2 cells, the “cell proliferation inhibitory activity against KRAS G12C mutant cells MIA PaCa-2 (in words)” value is reported as “significant cell proliferation inhibitory activities” and the IC50 was < 50 nM.

In the case of `C=CC(=[18O])N1CCN(c2nc(=O)n(-c3c(CC)ccnc3C(C)C)c3nc(-c4ccccc4C=O)c(Cl)cc23)[C@@H](C)C1` [Compound 3-2MIS], the “cell proliferation inhibitory activity against KRAS G12C mutant cells NCI-H358 (in words)” value with NCI-H358 cells is “significant cell proliferation inhibitory activities”. For the same compound, in the experiment on NCI-H358 cells (setting [2]), the IC50 is < 50 nM.

For the compound `[2H]C(=O)c1ccccc1-c1nc2c(cc1Cl)c(N1CCN(C(=[18O])C=C)C[C@@H]1C)nc(=O)n2-c1c(C)ccnc1C(C)C` [Compound 3-5MIS], in the experiment with NCI-H358 cells, the “cell proliferation inhibitory activity against KRAS G12C mutant cells NCI-H358 (in words)” value is recorded as “significant cell proliferation inhibitory activities”. Further, the IC50 in the experiment with NCI-H358 cells (setting [2]) is < 50 nM.

Consider `C=CC(=O)N1C[C@H](C)N(c2nc(=O)n(-c3c(C)ccnc3C(C)C)c3nc(-c4ccccc4C=O)c(Cl)cc23)C[C@H]1C` [Compound 3-17M], for which, in the experiment on MIA PaCa-2 cells, the “cell proliferation inhibitory activity against KRAS G12C mutant cells MIA PaCa-2 (in words)” value is recorded as “significant cell proliferation inhibitory activities” and the IC50 was < 50 nM.

Consider `C=CC(=O)N1CCN(c2nc(=O)n(-c3c(C)ccnc3C(C)C)c3nc(-c4ccccc4C(C)=O)c(Cl)cc23)[C@@H](C)C1` [TM-1, reference compound], for which, in the experiment on NCI-H358 cells (setting [3]), the IC50 was 50 to 150 nM. The “Tumor suppression ratio (%)” value in experiment [1] was “++ (“++” represents that the tumor suppression ratio is between 60% and 100%)”.

For `[2H]C(=O)c1ccccc1-c1nc2c(cc1Cl)c(N1CCN(C(=[18O])C=C)C[C@@H]1C)nc(=O)n2-c1c(CC)ccnc1C(C)C` [Compound 3-6MIS], the “cell proliferation inhibitory activity against KRAS G12C mutant cells NCI-H358 (in words)” value with NCI-H358 cells is given as “significant cell proliferation inhibitory activities”. Moreover, the IC50 with NCI-H358 cells (setting [2]) is < 50 nM.

Regarding `C=CC(=[18O])N1CCN(c2nc(=O)n(-c3c(C)ccnc3C(C)C)c3nc(-c4ccccc4C=O)c(Cl)cc23)[C@@H](C)C1` [Compound 3-1MIS], in the experiment on NCI-H358 cells, the “cell proliferation inhibitory activity against KRAS G12C mutant cells NCI-H358 (in words)” value is “significant cell proliferation inhibitory activities”. For the same compound, the IC50 in the experiment with NCI-H358 cells (setting [2]) was < 50 nM.

The record behind these values is US12679838B2, “Aromatic compound and application thereof in antitumor drug” (Shanghai Zheye Biotechnology Co., Ltd., priority 2020, dated 2026).
